# Data published in patent US20250057876A1, “METHODS FOR TREATING AND/OR PREVENTING LYMPHANGIOGENESIS-ASSOCIATED DISEASES BY USING GOLD NANOCLUSTERS” (MacKay Memorial Hospital, priority 2023, published 2025).
# Test system: ISO-induced cardiac injured mice
# Experiment: Echocardiography in isoproterenol (ISO)-induced heart failure model
# Type: in vivo, mouse
# Conditions: co-treatment of MAZ-51 with FANCs in ISO-treated mice, vs ISO+FANC group
# Procedure: Male 7-weeks-old C57BL/6 mice were purchased from BioLasco Inc. (Yilan, Taiwan), The mice were treated with FANCs (20 μM; about 0.57 mg/kg body weight) via an abdominal implant using osmotic pump system on Day 0. Then, the mice were subcutaneously treated with ISO (150 mg/kg) on Day 14. After 14 days from ISO injection, echocardiography was performed on Day 28 to measure the cardiac function of the mice. The animals were then sacrificed, and their hearts were harvested for histological and pathological examination.
# The experimental echocardiography for the mice was conducted after the mice were anesthetized with isoflurane (Abbott Laboratories Ltd., England; delivered to achieve a concentration of 1-2% in a combination of oxygen and nitrous oxide mixed at a ratio of 50:50 with air). […] Parameters including tissue Doppler used to determine contractile velocity (TDI-S′), deformation-based circumferential systolic strain measure, and quantitative indices of tissue structure integrated backscatter intensity from dynamic myocardial motions, were used to assess systolic myocardial performance using ECG-gated off-line analysis on the EchoPac Workstation.
compound,measurement,value
"CN(C)c1ccc(/C=C2/C(=O)Nc3ccccc32)c2ccccc12 [MAZ-51, (3E)-3-[[4-(dimethylamino)naphthalen-1-yl]methylidene]-JH-inden-2-one]",effect on FANCs improved cardiac function,abolished
